Results published in patent US11191742B2, “Methods of treating neurodegenerative disorders in a particular population” (ALZHEON, INC., priority 2015, dated 2021).

Assays:
Assay type in all cases: in vivo, human
[1] = Phase I 14-day multiple ascending dose study, plasma tramiprosate pharmacokinetics; conditions: over 14 days
Description: (§1) To advance the clinical development of ALZ-801 into Phase 3, we have completed single dose and 14-day multiple ascending dose Phase 1 bridging studies in healthy elderly volunteers to evaluate safety, tolerability and pharmacokinetics. […] The longer half-life observed in the multiple ascending dose studies was obtained after 14 days of BID dosing and was due to the fact that there were more extended blood sampling time points taken in that study as compared to the single dose study.

[2] = Phase I single dose study, plasma tramiprosate pharmacokinetics; conditions: single dose of oral ALZ-801
Description: as §1

[3] = ALZ-801 immediate release tablet, pharmacokinetics and GI tolerability fed vs fasted

For `CC(C)[C@H](N)C(=O)NCCCS(=O)(=O)O` [ALZ-801, valyl-3-amino-1-propanesulfonic acid], the “Dose proportionality and accumulation of plasma tramiprosate exposure” value [1] was “excellent dose proportionality without accumulation or decrease in plasma exposure”, the “Plasma exposure of tramiprosate compared with oral tramiprosate” value [2] was “equivalent plasma exposure of tramiprosate” and the “Incidence of GI symptoms with food compared to the fasted state” value ([3]; ALZ-801 immediate release tablet) was “markedly reduced”. For the same molecule, the “Difference in pharmacokinetic parameters between fed and fasted subjects” value ([3]; ALZ-801 tablet, single dose of 205 mg) was “no significant difference”.
